Measurements published in patent publication US20220289685A1, “ANTIMALARIAL HEXAHYDROPYRIMIDINE ANALOGUES” (UCB BIOPHARMA SRL, priority 2019, published 2022).
Where a name gives a salt, the structure may show the parent alone.

Tested on: Plasmodium falciparum 3D7 strain
Test: P. falciparum 3D7 asexual blood stage assay (SYBR green readout)
Format: cell-based
Conditions: Plasmodium falciparum, 3D7, Erythrocyte, 72 h
Protocol: Asexual Blood Stage Assay
The assay used to measure the effect of test compounds on a bloodstream stage of Plasmodium falciparum: 3D7 strain employs SYBR green as the readout. This is a dye that binds to double stranded deoxyribonucleic acid (DNA) with a resulting increase in fluorescence, allowing detection of P. falciparum DNA in infected erythrocytes, and thereby providing a measure of parasite growth and propagation.
P. falciparum Culture Maintenance
Erythrocytes (A+ blood) were prepared for both parasite culture and assay by washing 4 times with incomplete media (15.9 g RPMI 1640 (25 mM HEPES, L-glutamine), 1 g NaHCO3, 2 g glucose, 400 μL gentacin (500 mg/mL), 2 mL hypoxanthine solution (13.6 g/L in 0.1M NaOH pH 7.3) in 1 litre of media). The cells were centrifuged at 1800 g for 5 minutes, before decanting the supernatant and re-suspending in fresh incomplete media. On the final wash, the cells were re-suspended in complete media (incomplete media with 5 g/L AlbumaxII), and centrifuged at 1800 g for 3 minutes. This cell sediment was treated as 100% haematocrit.
P. falciparum 3D7 was cultured in erythrocytes at 5% haematocrit in complete media at 37° C. (1% O2, 3% CO2, balance N2). Cultures were split on a weekly basis to achieve a 1% parasitaemia in erythrocites at 5% haematocrit in fresh media. Culture media is replaced by fresh media every other day (2 times during the week).
On day 1, test compounds were added to assay plates using Echo dispensing technology ([…] and 20 points titration). 50 nL of each compound dilution was added to 50 μL of culture (5% haematocrit, 0.5% parasitaemia) and incubated for 72 h at 37° C. (1% O2, 3% CO2, balance N2). Final concentrations of test compounds ranged from 50,000 nM to 15 nM, in […].
On day 4, 10 μL SYBR green (Invitrogen S7563 supplied as 10,000× concentrate in DMSO) pre-diluted to 3× concentrate with Lysis buffer (20 mM Tris pH 7.9, 5% EDTA, 0.16% w/v, 1.6% TX100 v/v) was added to the cultures and incubated in the dark, overnight, at room temperature.
On day 5, fluorescent signal was measured using a BioTek plate reader (excitation 485 nm, emission 528 nm). All data were processed using IDBS ActivityBase. Raw data were converted into percent inhibition through linear regression by setting the high inhibition control (mefloquine) as 100% and the no inhibition control (DMSO) as 0%. Quality control criteria for passing plates were as follows: Z′>0.5, S:B>3, 30% CV(no inhibition control)<15. The formula used to calculate Z′ is: […]
All EC50 curve fitting was undertaken using the following bi-phasic two site dose response using XLfit model 300 (IDBS):
where A=100 minus the top of the upper curve 1 and the bottom of lower curve; B=Hill slope; log(C)=IC50 concentration at lower site; log(D)=IC50 concentration at upper site; x=inhibitor concentration; and y=% inhibition.

SMILES	IC50 [nM]
C[C@@]1(c2cccc(NC(=O)c3ccccc3)c2Cl)CC(=O)N(C2CCOCC2)C(=N)N1 [Example 1, N-{2-Chloro-3-[(4S)-2-imino-4-methyl-6-oxo-1-(tetrahydropyran-4-yl)hexahydropyrimidin-4-yl]-phenyl]benzamide trifluoroacetic acid salt]	227
C[C@@H]1C[C@H](N2C(=N)N[C@](C)(c3cccc(NC(=O)c4ccn(C)n4)c3Cl)CC2=O)CCO1 (relative stereo) [Example 8, N-(2-Chloro-3-{(4S)-2-imino-4-methyl-1-[(2R*,4R*)-2-methyl-tetrahydropyran-4-yl]-6-oxo-hexahydropyrimidin-4-yl}phenyl)-1-methylpyrazole-3-carboxamide hydrochloride]	260
C[C@@H]1C[C@H](N2C(=N)N[C@](C)(c3cccc(NC(=O)c4cncc(N(C)C)n4)c3Cl)CC2=O)CCO1 (relative stereo) [Example 91, N-(2-Chloro-3-{(4S)-2-imino-4-methyl-1-[(2R*,4R*)-2-methyl-tetrahydropyran-4-yl]-6-oxo-hexahydropyrimidin-4-yl]phenyl)-6-(dimethylamino)pyrazine-2-carboxamide hydrochloride]	116
C[C@@H]1C[C@H](N2C(=N)N[C@](C)(c3cccc(NC(=O)c4ccc(F)cc4C(F)(F)F)c3Cl)CC2=O)CCO1 (relative stereo) [Example 80, N-(2-Chloro-3-{(4S)-2-imino-4-methyl-1-[(2R*,4R*)-2-methyl-tetrahydropyran-4-yl]-6-oxo-hexahydropyrimidin-4-yl}phenyl)-4-fluoro-2-(trifluoromethyl)-benzamide trifluoroacetic acid salt]	61
C[C@@H]1C[C@H](N2C(=N)N[C@](C)(c3cccc(NC(=O)c4cc(C#N)ccc4F)c3Cl)CC2=O)CCO1 (relative stereo) [Example 76, N-(2-Chloro-3-{(4S)-2-imino-4-methyl-1-{(2R*,4R*)-2-methyl-tetrahydropyran-4-yl]-6-oxo-hexahydropyrimidin-4-yl}phenyl)-5-cyano-2-fluorobenzamide hydrochloride]	11
C[C@@H]1C[C@H](N2C(=N)N[C@](C)(c3cccc(NC(=O)c4ccc(Cl)cc4)c3Cl)CC2=O)CCO1 (relative stereo) [Example 9, 4-Chloro-N-(2-chloro-3-{(4S)-2-imino-4-methyl-1-[(2R*,4R*)-2-methyltetrahydropyran-4-yl]-6-oxo-hexahydropyrimidin-4-yl}phenyl)-benzamide hydrochloride]	52
C[C@@H]1C[C@H](N2C(=N)N[C@](C)(c3cccc(NC(=O)c4ccc(F)c(C#N)c4)c3Cl)CC2=O)CCO1 (relative stereo) [Example 116, N-(2-Chloro-3-{(4S)-2-imino-4-methyl-1-[(2R* ,4R* )-2-methyl-tetrahydropyran-4-yl]-6-oxo-hexahydropyrimidin-4-yl]phenyl)-3-cyano-4-fluorobenzamide trifluoroacetic acid salt]	89
COc1nccc(C(F)(F)F)c1C(=O)Nc1cccc([C@]2(C)CC(=O)N([C@@H]3CCO[C@H](C)C3)C(=N)N2)c1Cl (relative stereo) [Example 114, N-(2-Chloro-3-{(4S)-2-imino-4-methyl-1-[(2R*,4R*)-2-methyl-tetrahydropyran-4-yl]-6-oxo-hexahydropyrimidin-4-yl]phenyl)-2-methoxy-4-(trifluoromethyl)-pyridine-3-carboxamide hydrochloride]	53
C[C@@H]1CC(N2C(=N)N[C@](C)(c3cccc(NC(=O)c4cc(Cl)ccc4OC(F)F)c3Cl)CC2=O)CCO1 (relative stereo) [Example 84, 5-Chloro-N-(2-chloro-3-{(4S)-2-imino-4-methyl-1-[(2R*,4R*)-2-methyltetrahydropyran-4-yl]-6-oxo-hexahydropyrimidin-4-yl]phenyl)-2-(difluoromethoxy)benzamide trifluoroacetic acid salt]	37
C[C@@H]1C[C@H](N2C(=N)N[C@](C)(c3cccc(NC(=O)c4cccc(-n5cccn5)c4)c3Cl)CC2=O)CCO1 (relative stereo) [Example 90, N-(2-Chloro-3-{(4S)-2-imino-4-methyl-1-[(2R*,4R*)-2-methyl-tetrahydropyran-4-yl]-6-oxo-hexahydropyrimidin-4-yl}phenyl)-3-(pyrazol-1-yl)benzamide trifluoroacetic acid salt]	23
C[C@@H]1C[C@H](N2C(=N)N[C@](C)(c3cccc(NC(=O)c4ccc(F)c(Cl)c4F)c3Cl)CC2=O)CCO1 (relative stereo) [Example 71, 3-Chloro-N-(2-chloro-3-{(4S)-2-imino-4-methyl-1-[(2R*,4R*)-2-methyltetrahydropyran-4-yl]-6-oxo-hexahydropyrimidin-4-yl}phenyl)-2,4-difluorobenzamide hydrochloride]	26
C[C@@H]1C[C@H](N2C(=N)N[C@](C)(c3cccc(NC(=O)c4cc(C#N)ccn4)c3Cl)CC2=O)CCO1 (relative stereo) [Example 75, N-(2-Chloro-3-{(4S)-2-imino-4-methyl-1-[(2R*,4R*)-2-methyl-tetrahydropyran-4-yl]-6-oxo-hexahydropyrimidin-4-yl}phenyl)-4-cyanopyridine-2-carboxamide hydrochloride]	20
CC#Cc1cncc(C(=O)Nc2cccc([C@]3(C)CC(=O)N([C@@H]4CCO[C@H](C)C4)C(=N)N3)c2Cl)c1 (relative stereo) [Example 108, N-(2-Chloro-3-{(4S)-2-imino-4-methyl-1-[(2R*,4R*)-2-methyl-tetrahydropyran-4-yl]-6-oxo-hexahydropyrimidin-4-yl}phenyl)-5-(prop-1-ynyl)pyridine-3-carboxamide hydrochloride]	40
C[C@@H]1C[C@H](N2C(=N)N[C@](C)(c3cccc(NC(=O)c4ccncn4)c3Cl)CC2=O)CCO1 (relative stereo) [Example 16, N-(2-Chloro-3-{(4S)-2-imino-4-methyl-1-[(2R*,4R*)-2-methyl-tetrahydropyran-4-yl]-6-oxo-hexahydropyrimidin-4-yl}phenyl)-pyrimidine-4-carboxamide hydrochloride]	23
CC#Cc1cccc(C(=O)Nc2cccc([C@]3(C)CC(=O)N([C@@H]4CCO[C@H](C)C4)C(=N)N3)c2Cl)c1 (relative stereo) [Example 109, N-(2-Chloro-3-{(4S)-2-imino-4-methyl-1-[(2R*,4R*)-2-methyl-tetrahydropyran-4-yl]-6-oxo-hexahydropyrimidin-4-yl}phenyl)-3-(prop-1-ynyl)benzamide hydrochloride]	23
C[C@@H]1C[C@H](N2C(=N)N[C@](C)(c3cccc(NC(=O)c4cccc(-n5ccnc5)c4)c3Cl)CC2=O)CCO1 (relative stereo) [Example 105, N-(2-Chloro-3-{(4S)-2-imino-4-methyl-1-[(2R*,4R*)-2-methyl-tetrahydropyran-4-yl]-6-oxo-hexahydropyrimidin-4-yl]phenyl)-3-(imidazol-1-yl)benzamide hydrochloride]	44
C[C@@H]1C[C@H](N2C(=N)N[C@](C)(c3cccc(NC(=O)c4cc5cccc(F)c5o4)c3Cl)CC2=O)CCO1 (relative stereo) [Example 44, N-(2-Chloro-3-{(4S)-2-imino-4-methyl-1-[(2R*,4R*)-2-methyl-tetrahydropyran-4-yl]-6-oxo-hexahydropyrimidin-4-yl]phenyl)-7-fluorobenzofuran-2-carboxamide trifluoroacetic acid salt]	20
C[C@@H]1C[C@H](N2C(=N)N[C@](C)(c3cccc(NC(=O)c4ccncc4C(F)(F)F)c3Cl)CC2=O)CCO1 (relative stereo) [Example 89, N-(2-Chloro-3-{(4S)-2-imino-4-methyl-1-[(2R*,4R*)-2-methyl-tetrahydropyran-4-yl]-6-oxo-hexahydropyrimidin-4-yl}phenyl)-3-(trifluoromethyl)pyridine-4-carboxamide trifluoroacetic acid salt]	373
C[C@@H]1C[C@H](N2C(=N)N[C@](C)(c3cccc(NC(=O)c4cccc(C#N)c4F)c3Cl)CC2=O)CCO1 (relative stereo) [Example 73, N-(2-Chloro-3-{(4S)-2-imino-4-methyl-1-[(2R*,4R*)-2-methyl-tetrahydropyran-4-yl]-6-oxo-hexahydropyrimidin-4-yl}phenyl)-3-cyano-2-fluorobenzamide hydrochloride]	6
